Legend:
Canis familiaris [1] = experiment: Oral bioavailability in dog at 2 mg/kg by LC-MS/MS analysis; assay type: ADME, organism-based, Canis lupus familiaris; details: in vivo
Hepatocyte [2] = experiment: Metabolic stability in human hepatocytes assessed as compound remaining by UPLC/Q-TOF mass spectrometric analysis; assay type: ADME, cell-based
Hepatocyte [3] = experiment: Metabolic stability in dog hepatocytes assessed as compound remaining by UPLC/Q-TOF mass spectrometric analysis; assay type: ADME, cell-based, Canis lupus familiaris
[4] = Tmax in dog at 2 mg/kg, po by LC-MS/MS analysis; assay type: ADME, organism-based, Canis lupus familiaris; details: in vivo
[5] = Cmax in dog at 2 mg/kg, po by LC-MS/MS analysis; assay type: ADME, organism-based, Canis lupus familiaris; set-up: dose 2 mg/kg, route oral; details: in vivo
Rattus norvegicus = experiment: Tmax in Sprague-Dawley rat at 10 mg/kg, po by LC-MS/MS analysis; assay type: ADME, organism-based; details: in vivo
Hepatocyte [6] = experiment: Metabolic stability in rat hepatocytes assessed as compound remaining by UPLC/Q-TOF mass spectrometric analysis; assay type: ADME, cell-based
[7] = Cytotoxicity against human TZM-bl cells after 48 hrs by MTT assay; assay type: cell-based
Canis familiaris [8] = experiment: Clearance in dog at 0.5 mg/kg, iv by LC-MS/MS analysis; assay type: ADME, organism-based, Canis lupus familiaris; details: in vivo
Canis familiaris [9] = experiment: AUC (0 to infinity) in dog at 2 mg/kg, po by LC-MS/MS analysis; assay type: ADME, organism-based, Canis lupus familiaris; set-up: dose 2 mg/kg, route oral, time infinity; details: in vivo
[10] = AUC in rat at 10 mg/kg, po administered as single dose; assay type: ADME, organism-based; details: in vivo
[11] = Cmax in Sprague-Dawley rat at 10 mg/kg, po by LC-MS/MS analysis; assay type: ADME, organism-based; set-up: dose 10 mg/kg, route oral; details: in vivo

- F (Canis familiaris [1]): 40%
- Stability (Hepatocyte [2]): 33%
- Stability (Hepatocyte [3]): 45%
- Tmax [4]: 45 min
- Cmax [5]: 256 ng/mL
- Tmax (Rattus norvegicus): 120 min
- Stability (Hepatocyte [6]): 79%
- clearance (Canis familiaris [8]): 21 mL/min/kg
- AUC (Canis familiaris [9]): 583 ng·h/mL
- AUC [10]: 12.4 ng·h/mL
- Cmax [11]: 5.5 ng/mL
SMILES: Cc1nnc(C(C)C)n1[C@@H]1C[C@H]2CC[C@@H](C1)N2CC[C@H](NC(=O)C1CCC(F)(F)CC1)c1ccccc1 [MARAVIROC]
- CC50 at 48 h [7]: > 200 µM

Source: ChEMBL document CHEMBL4229569, “Structure-Based Design of 1-Heteroaryl-1,3-propanediamine Derivatives as a Novel Series of CC-Chemokine Receptor 5 Antagonists” (J Med Chem, 2018)
